The values below come from patent publication US11370778B2, “Bis(pentahydroxyhexyl)amino substituted 2-{[(3-amino-pyrazin-2-yl)formamido]methyl}-1H-1,3-benzodiazol-3-ium derivatives as ENaC inhibitors for treating respiratory diseases” (ENTERPRISE THERAPEUTICS LIMITED, priority 2017, dated 2022).

Counter-ions that a name gives are not always drawn.

The nature of this series: Bronchoalveolar lavage: compound levels in BAL after intratracheal administration. The format is in vivo. As to conditions: bronchoalveolar lavage fluid (BAL), other: intratracheal, 0.1 mg/kg, rat, 0.1 mg/mL solution in 5% dextrose, 1 mL/Kg, lungs lavaged after 6 hours, LC/MS/MS. The method, then:
Example 9—Bronchoalveolar Lavage A 0.1 mg/mL solution of ENaC inhibitor in 5% dextrose was administered intratracheally to a rat weighing 225-250 g. A volume of 1 mL/Kg was used. After 6 hours, lungs were lavaged with 3×4 mL of sterile saline. A 1 mL aliquot was subsequently snap frozen. Lungs were excised, weighed and snap frozen. Compound levels in the BAL and lung tissue were subsequently determined using LC/MS/MS bioanalysis.

The compound `CCn1c(CNC(=O)c2nc(Cl)c(N)nc2N)[n+](CC)c2ccc(C(=O)NCCc3ccc(-c4ccc(CCN(C[C@H](O)[C@@H](O)[C@H](O)[C@H](O)CO)C[C@H](O)[C@@H](O)[C@H](O)[C@H](O)CO)cc4)cc3)cc21` [Example 7, 6-({2-[4′-(2-{bis[(2S,3R,4R,5R)-2,3,4,5,6-pentahydroxyhexyl]amino}ethyl)-[1,1′-biphenyl]-4-yl]ethyl}carbamoyl)-2-{[(3,5-diamino-6-chloropyrazin-2-yl)formamido]methyl}-1,3-diethyl-1H-1,3-benzodiazol-3-ium trifluoroacetic acid trifluoroacetate] yielded a concentration at 6 h of 645 ng/mL. The result for `CCn1c(CNC(=O)c2nc(Cl)c(N)nc2N)[n+](CC)c2ccc(C(=O)N3CCC(N(C[C@H](O)[C@@H](O)[C@H](O)[C@H](O)CO)C[C@H](O)[C@@H](O)[C@H](O)[C@H](O)CO)CC3)cc21` [Example 1, 6-(4-{bis[(2S,3R,4R,5R)-2,3,4,5,6-pentahydroxyhexyl]amino}piperidine-1-carbonyl)-2-{[(3,5-diamino-6-chloropyrazin-2-yl)formamido]methyl}-1,3-diethyl-1H-1,3-benzodiazol-3-ium trifluoroacetic acid trifluoroacetate] reads 222 ng/mL; that for `CCn1c(CNC(=O)c2nc(Cl)c(N)nc2N)[n+](CC)c2ccc(C(=O)N3CC[C@@H](N(C[C@H](O)[C@@H](O)[C@H](O)[C@H](O)CO)C[C@H](O)[C@@H](O)[C@H](O)[C@H](O)CO)C3)cc21` [Example 4, 6-[(3R)-3-{bis[(2S,3R,4R,5R)-2,3,4,5,6-pentahydroxyhexyl]amino}pyrrolidine-1-carbonyl]-2-{[(3,5-diamino-6-chloropyrazin-2-yl)formamido]methyl}-1,3-diethyl-1H-1,3-benzodiazol-3-ium trifluoroacetic acid trifluoroacetate], 524 ng/mL; that for `CCn1c(CNC(=O)c2nc(Cl)c(N)nc2N)[n+](CC)c2ccc(C(=O)N3CCC(CN(C[C@H](O)[C@@H](O)[C@H](O)[C@H](O)CO)C[C@H](O)[C@@H](O)[C@H](O)[C@H](O)CO)CC3)cc21` [Example 3, 6-[4-({bis[(2S,3R,4R,5R)-2,3,4,5,6-pentahydroxyhexyl]amino}methyl)piperidine-1-carbonyl]-2-{[(3,5-diamino-6-chloropyrazin-2-yl)formamido]methyl}-1,3-diethyl-1H-1,3-benzodiazol-3-ium trifluoroacetic acid trifluoroacetate], 210 ng/mL.

Regarding `CCn1c(CNC(=O)c2nc(Cl)c(N)nc2N)[n+](CC)c2ccc(C(=O)NCCOCCOCCOCCN(C[C@H](O)[C@@H](O)[C@H](O)[C@H](O)CO)C[C@H](O)[C@@H](O)[C@H](O)[C@H](O)CO)cc21` [Example 6, 2-{[(3,5-diamino-6-chloropyrazin-2-yl)formamido]methyl}-1,3-diethyl-6-{[(14S,15R,16R,17R)-14,15,16,17,18-pentahydroxy-12-[(2S,3R,4R,5R)-2,3,4,5,6-pentahydroxyhexyl]-3,6,9-trioxa-12-azaoctadecan-1-yl]carbamoyl}-1H-1,3-benzodiazol-3-ium trifluoroacetic acid trifluoroacetate], the concentration at 6 h was 251 ng/mL.

Consider `CCn1c(CNC(=O)c2nc(Cl)c(N)nc2N)[n+](CC)c2ccc(C(=O)NCCN(C[C@H](O)[C@@H](O)[C@H](O)[C@H](O)CO)C[C@H](O)[C@@H](O)[C@H](O)[C@H](O)CO)cc21` [Example 5, 6-[(2-{bis[(2S,3R,4R,5R)-2,3,4,5,6-pentahydroxyhexyl]amino}ethyl)carbamoyl]-2-{[(3,5-diamino-6-chloropyrazin-2-yl)formamido]methyl}-1,3-diethyl-1H-1,3-benzodiazol-3-ium trifluoroacetic acid trifluoroacetate], for which the concentration at 6 h amounted to 471 ng/mL.
